This is an account of results in patent US9670227B2, “Thienopyrimidine derivatives, a process for their preparation and pharmaceutical compositions containing them” (LES LABORATOIRES SERVIER, priority 2013, dated 2017).

Chain of Mcl-1 protein (Q07820 whole entry): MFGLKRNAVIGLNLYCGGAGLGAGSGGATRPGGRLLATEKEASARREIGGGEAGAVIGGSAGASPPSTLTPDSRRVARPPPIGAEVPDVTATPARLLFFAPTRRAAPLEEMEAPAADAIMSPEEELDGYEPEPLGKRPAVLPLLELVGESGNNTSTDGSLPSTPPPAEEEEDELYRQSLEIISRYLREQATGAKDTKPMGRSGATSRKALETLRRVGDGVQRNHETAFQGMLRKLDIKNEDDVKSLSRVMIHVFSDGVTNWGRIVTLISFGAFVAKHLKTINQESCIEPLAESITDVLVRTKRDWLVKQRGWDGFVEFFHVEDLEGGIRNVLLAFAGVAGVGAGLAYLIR

For the first assay, the target named is Mcl-1 protein (UniProtKB primary accession number: Q07820) (Homo sapiens, UniProt Q07820). The experiment in a line: Inhibition of Mcl-1 by fluorescence polarisation, Method 1. The class given is binding. The settings on record: fluorescence polarisation test; Method 1, or Method 2 where the value is underlined (underlining not visible); read-out: IC50 (M) Mcl-1 FP. An outline of the steps:
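Compounds were tested as 11-point serial dilutions at 5% final DMSO against 5 nM Mcl-1 with 1 nM fluorescein-labelled ligand in 10 mM HEPES, 150 mM NaCl, 0.05% Tween 20, pH 7.4. Relative binding potency was read by fluorescence polarisation.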
Background: Polarisation of emitted light reports the rotation of a fluorescent probe.
A word on the IC50: it is the point on the concentration scale where inhibition reaches its midpoint. For `Cc1c(-c2c(-c3ccc(F)cc3)sc3ncnc(OC(Cc4ccccc4OCc4ccnn4C(C)(C)C)C(=O)OCC(=O)N(C)C)c23)ccc(OCCN(C)C)c1Cl` [Example 817, 2-(dimethylamino)-2-oxoethyl (2R)-3-{2-[(1-tert-butyl-1H-pyrazol-5-yl)methoxy]phenyl}-2-{[(5Sa)-5-{3-chloro-4-[2-(dimethylamino)ethoxy]-2-methylphenyl}-6-(4-fluorophenyl)thieno[2,3-d]pyrimidin-4-yl]oxy}propanoate], the IC50 was determined as 4.75e-07 M.

Regarding `CCOC(=O)C(Cc1ccccc1OCc1ccnc(-c2ccccc2OCCOC)n1)Oc1ncnc2sc(-c3ccc(F)cc3)c(-c3ccc(OCCN(C)C)c(Cl)c3C)c12` [Example 806, ethyl (2R)-2-{[(5Sa)-5-{3-chloro-4-[2-(dimethylamino)ethoxy]-2-methylphenyl}-6-(4-fluorophenyl)thieno[2,3-d]pyrimidin-4-yl]oxy}-3-[2-({2-[2-(2-methoxyethoxy)phenyl]pyrimidin-4-yl}methoxy)phenyl]propanoate], the concentration for half-maximal inhibition (IC50) worked out at 1.63e-06 M.

Turning to `COc1ccccc1-c1nccc(COc2ccccc2CC(Oc2ncnc3sc(-c4ccc(F)cc4)c(-c4ccc(OC)c(Cl)c4C)c23)C(=O)O)n1` [Example 841, (2R)-2-{[(5Sa)-5-(3-chloro-4-methoxy-2-methylphenyl)-6-(4-fluorophenyl)thieno[2,3-d]pyrimidin-4-yl]oxy}-3-(2-{[2-(2-methoxyphenyl)pyrimidin-4-yl]methoxy}phenyl)propanoic acid], the IC50 is 4.8e-09 M.

Take `CCOC(=O)C(Cc1ccccc1OCc1ccnc(-c2ccccc2O)n1)Oc1ncnc2sc(-c3ccc(F)cc3)c(-c3ccc(OCCN4CCN(C)CC4)c(Cl)c3C)c12` [Example 793, ethyl (2R)-2-{[(5Sa)-5-{3-chloro-2-methyl-4-[2-(4-methylpiperazin-1-yl)ethoxy]phenyl}-6-(4-fluorophenyl)thieno[2,3-d]pyrimidin-4-yl]oxy}-3-(2-{[2-(2-hydroxyphenyl)pyrimidin-4-yl]methoxy}phenyl)propanoate]: the half-maximal inhibitory concentration (IC50) amounted to 5.37e-06 M.

With `COCCOc1ccccc1-c1nccc(COc2ccccc2CC(Oc2ncnc3sc(-c4ccc(F)cc4)c(-c4ccc(OCCN(C)C)c(Cl)c4C)c23)C(=O)OCC(=O)N(C)C)n1` [Example 819, 2-(dimethylamino)-2-oxoethyl (2R)-2-{[(5Sa)-5-{3-chloro-4-[2-(dimethylamino)ethoxy]-2-methylphenyl}-6-(4-fluorophenyl)thieno[2,3-d]pyrimidin-4-yl]oxy}-3-[2-({2-[2-(2-methoxyethoxy)phenyl]pyrimidin-4-yl}methoxy)phenyl]propanoate], the IC50 is 1.57e-07 M.

The same assay, now with this note: fluorescence polarisation test; Method 2 values are underlined in the patent (underlining not visible here); read-out: IC50 (M) Mcl-1 FP.
As for `Cc1ccccc1-c1nccc(COc2ccccc2CC(Oc2ncnc3sc(-c4ccc(F)cc4)c(-c4ccc(OCCN5CCN(C)CC5)c(Cl)c4C)c23)C(=O)O)n1` [Example 113, (2R)-2-{[(5Sa)-5-{3-chloro-2-methyl-4-[2-(4-methylpiperazin-1-yl)ethoxy]phenyl}-6-(4-fluorophenyl)thieno[2,3-d]pyrimidin-4-yl]oxy}-3-(2-{[2-(2-methylphenyl)pyrimidin-4-yl]methoxy}phenyl)propanoic acid], the IC50 amounted to 2.6e-09 M.

In the case of `CCCCn1nccc1COc1ccccc1CC(Oc1ncnc2sc(-c3ccc(F)o3)c(-c3ccc(OCCN4CCN(C)CC4)c(Cl)c3C)c12)C(=O)O` [Example 188, (2R)-3-{2-[(1-butyl-1H-pyrazol-5-yl)methoxy]phenyl}-2-{[(5Sa)-5-{3-chloro-2-methyl-4-[2-(4-methylpiperazin-1-yl)ethoxy]phenyl}-6-(5-fluorofuran-2-yl)thieno[2,3-d]pyrimidin-4-yl]oxy}propanoic acid], the IC50 worked out at 6.4e-09 M.

Consider `COc1ccccc1CC(Oc1ncnc2sc(-c3ccco3)c(-c3ccc(OCC4CNCCO4)c(Cl)c3C)c12)C(=O)O` [Example 315, (2R)-2-({(5Sa)-5-[3-chloro-2-methyl-4-(morpholin-2-ylmethoxy)phenyl]-6-(furan-2-yl)thieno[2,3-d]pyrimidin-4-yl}oxy)-3-(2-methoxyphenyl)propanoic acid], for which the IC50 stood at 2.2e-08 M.

As to `COc1ccccc1CC(Oc1ncnc2sc(-c3ccco3)c(-c3ccc(OCCN4CCN(CC(N)=O)CC4)c(Cl)c3C)c12)C(=O)O` [Example 326, (2R)-2-{[(5Sa)-5-(4-{2-[4-(2-amino-2-oxoethyl)piperazin-1-yl]ethoxy}-3-chloro-2-methylphenyl)-6-(furan-2-yl)thieno[2,3-d]pyrimidin-4-yl]oxy}-3-(2-methoxyphenyl)propanoic acid], the IC50 is 7.9e-09 M.

The assay is the same for the next values; noted with them: fluorescence polarisation; Method 1, or Method 2; read-out: IC50 (M) Mcl-1 FP.
Turning to `CC#Cc1sc2ncnc(OC(Cc3ccccc3OCc3ccnn3CCCC)C(=O)O)c2c1-c1ccc(OCCN2CCN(C)CC2)c(Cl)c1C` [Example 490, (2R)-3-{2-[(1-butyl-1H-pyrazol-5-yl)methoxy]phenyl}-2-{[(5Sa)-5-{3-chloro-2-methyl-4-[2-(4-methylpiperazin-1-yl)ethoxy]phenyl}-6-(prop-1-yn-1-yl)thieno[2,3-d]pyrimidin-4-yl]oxy}propanoic acid], the IC50 stood at 3e-09 M.

With `Cc1c(-c2c(-c3ccco3)sc3ncnc(OC(Cc4ccccc4OCc4ccccn4)C(=O)O)c23)ccc(O)c1Cl` [Example 674, (2R)-2-{[(5Sa)-5-(3-chloro-4-hydroxy-2-methylphenyl)-6-(furan-2-yl)thieno[2,3-d]pyrimidin-4-yl]oxy}-3-[2-(pyridin-2-ylmethoxy)phenyl]propanoic acid], the IC50 came to 2.1e-08 M.

With `COc1ccccc1CC(Oc1ncnc2sc(-c3ccc(C(=O)N(C)C)o3)c(-c3ccc(OCCN4CCN(C)CC4)c(Cl)c3C)c12)C(=O)O` [Example 582, (2R)-2-[((5Sa)-5-{3-chloro-2-methyl-4-[2-(4-methylpiperazin-1-yl)ethoxy]phenyl}-6-[5-(dimethylcarbamoyl)furan-2-yl]thieno[2,3-d]pyrimidin-4-yl)oxy]-3-(2-methoxyphenyl)propanoic acid], the IC50 amounted to 8.4e-08 M.

`CC#Cc1sc2ncnc(O[C@H](Cc3ccccc3OC)C(=O)O)c2c1-c1cc(F)c(OC)c(Cl)c1C` (single isomer, unassigned) [Example 470]: the IC50 was found to be 4.8e-07 M.

Turning to `Cc1c(-c2c(-c3ccc(F)cc3)sc3ncnc(O[C@H](Cc4ccccc4OCc4ccnc(-c5ccccc5O)n4)C(=O)O)c23)ccc(OCCN2CCNCC2)c1Cl` [Example 749, (2R)-2-{[(5Sa)-5-{3-chloro-2-methyl-4-[2-(piperazin-1-yl)ethoxy]phenyl}-6-(4-fluorophenyl)thieno[2,3-d]pyrimidin-4-yl]oxy}-3-(2-{[2-(2-hydroxyphenyl)pyrimidin-4-yl]methoxy}phenyl)propanoic acid], the 50% inhibitory concentration (IC50) was 8.24e-09 M.

`CCc1sc2ncnc(O[C@@H](Cc3ccccc3OC)C(=O)O)c2c1-c1ccc(O)c(Cl)c1C` (single isomer, unassigned) [Example 680]: the IC50 was determined as 2.8e-05 M.

For the compound `COc1ccccc1-c1nccc(COc2ccccc2CC(Oc2ncnc3sc(C#CCCN4CCOCC4)c(-c4ccc(OCCN5CCN(C)CC5)c(Cl)c4C)c23)C(=O)O)n1` [Example 785, (2R)-2-[((5Sa)-5-{3-chloro-2-methyl-4-[2-(4-methylpiperazin-1-yl)ethoxy]phenyl}-6-[4-(morpholin-4-yl)but-1-yn-1-yl]thieno[2,3-d]pyrimidin-4-yl)oxy]-3-(2-{[2-(2-methoxyphenyl)pyrimidin-4-yl]methoxy}phenyl)propanoic acid], the IC50 is 3.85e-09 M.

With `COc1nccc(COc2ccccc2CC(Oc2ncnc3sc(-c4ccc(F)c(OCCN5CCOCC5)c4)c(-c4ccc(OC)c(Cl)c4C)c23)C(=O)O)n1` [Example 700, (2R)-2-{[(5Sa)-5-(3-chloro-4-methoxy-2-methylphenyl)-6-{4-fluoro-3-[2-(morpholin-4-yl)ethoxy]phenyl}thieno[2,3-d]pyrimidin-4-yl]oxy}-3-{2-[(2-methoxypyrimidin-4-yl)methoxy]phenyl}propanoic acid], the IC50 is 1.2e-08 M.

The same assay, now with this note: partial inhibitors; @ 10 uM test compound.
Turning to `CCOC(=O)[C@@H](Cc1ccccc1OC[C@H]1CCCO1)Oc1ncnc2sc(-c3ccc(F)cc3)c(-c3ccc(OCCN4CCOCC4)c(Cl)c3C)c12` [Example 629, ethyl (2R)-2-{[(5Sa)-5-{3-chloro-2-methyl-4-[2-(morpholin-4-yl)ethoxy]phenyl}-6-(4-fluorophenyl)thieno[2,3-d]pyrimidin-4-yl]oxy}-3-{2-[(2R)-tetrahydrofuran-2-ylmethoxy]phenyl}propanoate], the “percentage fluorescence polarisation inhibition, Mcl-1 FP” value is 14.95% @ 10 uM.

The same assay, now with this note: test compound at 10 uM; Method 1, or Method 2 where the value is underlined (underlining not visible).
`CCOC(=O)[C@@H](Cc1ccccc1OCc1ccnc(-c2ccccc2OC)n1)Oc1ncnc2sc(-c3ccc(F)cc3)c(-c3ccc(OC)c(Cl)c3C)c12` [Example 843, ethyl (2R)-2-{[(5Sa)-5-(3-chloro-4-methoxy-2-methylphenyl)-6-(4-fluorophenyl)thieno[2,3-d]pyrimidin-4-yl]oxy}-3-(2-{[2-(2-methoxyphenyl)pyrimidin-4-yl]methoxy}phenyl)propanoate]: the “percentage fluorescence polarisation inhibition (Mcl-1 FP), partial inhibitors” value came out at 23.05% @ 10 uM.

Regarding `COCCOC(=O)[C@@H](Cc1ccccc1OCc1ccnc(-c2ccccc2F)n1)Oc1ncnc2sc(-c3ccc(F)cc3)c(-c3ccc(OCCN(C)C)c(Cl)c3C)c12` [Example 799, 2-methoxyethyl (2R)-2-{[(5Sa)-5-{3-chloro-4-[2-(dimethylamino)ethoxy]-2-methylphenyl}-6-(4-fluorophenyl)thieno[2,3-d]pyrimidin-4-yl]oxy}-3-(2-{[2-(2-fluorophenyl)pyrimidin-4-yl]methoxy}phenyl)propanoate], the “percentage fluorescence polarisation inhibition (Mcl-1 FP), partial inhibitors” value is listed as 59.6% @ 10 uM.
